Assay results published in patent US7462636B2, “Broadspectrum substituted benzisoxazole sulfonamide HIV protease inhibitors” (priority 2002, dated 2008).
Where two headings read alike, the source gives them in different places.

Key:
[1] = system: HIV strain E (protease mutant); experiment: Antiviral spectrum, mutant HIV strain E; assay type: cell-based; details: FR=EC50(mutant strain)/EC50(HIV-1 strain LAI); calculated averages
Experimental: (§1) HIV- or mock-infected MT4 cells were incubated for five days in the presence of various concentrations of the inhibitor. At the end of the incubation period, all HIV-infected cells have been killed by the replicating virus in the control cultures in the absence of any inhibitor. Cell viability is measured by measuring the concentration of MTT, a yellow, water soluble tetrazolium dye that is converted to a purple, water insoluble formazan in the mitochondria of living cells only. Upon solubilization of the resulting formazan crystals with isopropanol, the absorbance of the solution is monitored at 540 nm. The values correlate directly to the number of living cells remaining in the culture at the completion of the five day incubation. The inhibitory activity of the compound was monitored on the virus-infected cells and was expressed as EC50 and EC90. These values represent the amount of the compound required to protect 50% and 90%, respectively, of the cells from the cytopathogenic effect of the virus. […] Wherever results are reported as e.g. pEC50 or pCC50 values, the result is expressed as the negative logarithm of the result expressed as EC50 or CC50 respectively. […]
(§2) As a measure of the broad spectrum activity of the present compounds, the fold resistance (FR), defined as FR=EC50(mutant strain)/EC50(HIV-1 strain LAI), was determined.

[2] = system: HIV strain B (protease mutant); experiment: Antiviral spectrum, mutant HIV strain B; assay type: cell-based; details: FR=EC50(mutant strain)/EC50(HIV-1 strain LAI); calculated averages
Experimental: as §1, §2

[3] = system: HIV strain C (protease mutant); experiment: Antiviral spectrum, mutant HIV strain C; assay type: cell-based; details: FR=EC50(mutant strain)/EC50(HIV-1 strain LAI); calculated averages
Experimental: as §1, §2

[4] = system: HIV strain A (protease mutant); experiment: Antiviral spectrum, mutant HIV strain A; assay type: cell-based; details: FR=EC50(mutant strain)/EC50(HIV-1 strain LAI); calculated averages
Experimental: as §1, §2

[5] = system: HIV strain F (protease mutant); experiment: Antiviral spectrum, mutant HIV strain F; assay type: cell-based; details: FR=EC50(mutant strain)/EC50(HIV-1 strain LAI); calculated averages
Experimental: as §1, §2

[6] = system: HIV strain D (protease mutant); experiment: Antiviral spectrum, mutant HIV strain D; assay type: cell-based; details: FR=EC50(mutant strain)/EC50(HIV-1 strain LAI); calculated averages
Experimental: as §1, §2

[7] = system: HIV-1 strain LAI; experiment: Cellular anti-HIV assay (MT4 cells, MTT), wild type strain; assay type: cell-based
Experimental: The compounds of the present invention were examined for anti-viral activity in a cellular assay. […] The cellular assay was performed according to the following procedure.
HIV- or mock-infected MT4 cells were incubated for five days in the presence of various concentrations of the inhibitor. At the end of the incubation period, all HIV-infected cells have been killed by the replicating virus in the control cultures in the absence of any inhibitor. Cell viability is measured by measuring the concentration of MTT, a yellow, water soluble tetrazolium dye that is converted to a purple, water insoluble formazan in the mitochondria of living cells only. Upon solubilization of the resulting formazan crystals with isopropanol, the absorbance of the solution is monitored at 540 nm. The values correlate directly to the number of living cells remaining in the culture at the completion of the five day incubation. The inhibitory activity of the compound was monitored on the virus-infected cells and was expressed as EC50 and EC90. […] Wherever results are reported as e.g. pEC50 or pCC50 values, the result is expressed as the negative logarithm of the result expressed as EC50 or CC50 respectively.
as §2

[8] = system: HIV strain G (protease mutant); experiment: Antiviral spectrum, mutant HIV strain G; assay type: cell-based; details: FR=EC50(mutant strain)/EC50(HIV-1 strain LAI); calculated averages
Experimental: as §1, §2

[9] = Toxicity on mock-infected MT4 cells (MTT); assay type: cell-based; details: human
Experimental: HIV- or mock-infected MT4 cells were incubated for five days in the presence of various concentrations of the inhibitor. At the end of the incubation period, all HIV-infected cells have been killed by the replicating virus in the control cultures in the absence of any inhibitor. Cell viability is measured by measuring the concentration of MTT, a yellow, water soluble tetrazolium dye that is converted to a purple, water insoluble formazan in the mitochondria of living cells only. Upon solubilization of the resulting formazan crystals with isopropanol, the absorbance of the solution is monitored at 540 nm. The values correlate directly to the number of living cells remaining in the culture at the completion of the five day incubation. The inhibitory activity of the compound was monitored on the virus-infected cells and was expressed as EC50 and EC90. These values represent the amount of the compound required to protect 50% and 90%, respectively, of the cells from the cytopathogenic effect of the virus. […] Wherever results are reported as e.g. pEC50 or pCC50 values, the result is expressed as the negative logarithm of the result expressed as EC50 or CC50 respectively.
as §2

[10] = Oral availability in the rat (serum concentration, LC-MS); assay type: in vivo; details: both sexes, 10 mg/kg
Experimental: The oral availability of a selected compound was evaluated in a standard set of kinetic experiments, primarily in male and female rats and secondarily in male and female dogs. The compound was formulated as a 20 mg/ml solution or suspension in DMSO, PEG400 or cyclodextin 40% (CD40%) in water. For most experiments in the rat, three dosing groups were formed: 1/single intraperitoneal dose at 20 mg/kg using the DMSO formulation; 2/single oral dose at 20 mg/kg using the PEG400 formulation and 3/single oral dose at 20 mg/kg using the cyclodextrin formulation. In the dog, only the oral route of administration was used. Blood was sampled at regular time intervals after dosing and drug concentrations in the serum were determined using a LC-MS bioanalytical method. Serum concentrations were expressed in […] after normalization to 10 mg/kg. Below, the serum concentration at 30 minutes and at 3 hours is listed as these values reflect the extent of absorption (30′) and the speed of elimination (180′). The oral bioavailability in the rat was examined using DMSO and PEG formulations (cfr supra). The serum concentration following administration of 10 mg/kg of compound 1 was 10.2 ng/ml at 30 min (DMSO) and 22.2 ng/ml (PEG). The intraperitoneal absorption of a dose of 10 mg/kg (DMSO formulation) was 2076 ng/ml 30 minutes (min) following administration and 208 ng/ml 180 min following administration.

Compound	FR towards mutant E [1]	FR towards mutant B [2]	FR towards mutant C [3]	FR towards mutant A [4]	FR towards mutant F [5]	FR towards mutant D [6]	WT (pEC50) ([7]; calculated averages)	FR towards mutant G [8]	CC50 at 5 days [9] [µM]	concentration at 30 min ([10]; ip, intraperitoneal, DMSO formulation, 30 min following administration, read-out: intraperitoneal absorption (serum concentration)) [ng/mL]	concentration at 180 min ([10]; ip, intraperitoneal, DMSO formulation, 180 min following administration, read-out: intraperitoneal absorption (serum concentration)) [ng/mL]	concentration at 30 min ([10]; po, oral, DMSO formulation, at 30 min, read-out: serum concentration) [ng/mL]	concentration at 30 min ([10]; po, oral, PEG formulation, read-out: serum concentration) [ng/mL]	EC50 ([7]; Human immunodeficiency virus 1, calculated averages, read-out: WT (pEC50) (converted)) [nM]
5-Methyl-isoxazole-4-carboxylic acid{3-[(3-amino-benzo[d]isoxazole-5-sulfonyl)-isobutyl-amino]-1-benzyl-2-hydroxy-propyl}-amide [Compound 6]	7.2	5.6	5.5	16	16	16	6.2	16						
CC(C)CN(C[C@@H](O)[C@H](Cc1ccccc1)NC(=O)O[C@H]1CO[C@H]2OCC[C@H]21)S(=O)(=O)c1ccc2onc(N)c2c1 [Compound 1, {3-[(3-Amino-benzo[d]isoxazole-5-sulfonyl)-isobutyl-amino]-1-benzyl-2-hydroxy-propyl}-carbamic acid hexahydro-furo[2,3-b]furan-3-yl ester]	0.30	0.78	0.49	0.63	0.85	0.35		6.9	> 100	2080	208	10.2	22.2	7.94
